The NIST ThermoML archive (doi:10.1021/je049671t)

Experiment: xn = mol fraction of the nth substance listed
Conditions: Liquid, Vibrating tube method

CC(C)C [2-methylpropane] + CCCC
Conditions | mass density [kg/m3]
300 K, 5514.6 kPa, x2 = 0.25 | 564.1
300 K, 5950.5 kPa, x2 = 0.75 | 574.92
300 K, 5960.3 kPa, x2 = 0.5 | 570.04
300 K, 6036.6 kPa, x2 = 0.25 | 565.05
300 K, 6473.1 kPa, x2 = 0.75 | 575.78
300 K, 6498 kPa, x2 = 0.25 | 565.9
300 K, 6511.5 kPa, x2 = 0.5 | 571.01
300 K, 7001.6 kPa, x2 = 0.25 | 566.76
300 K, 7003.6 kPa, x2 = 0.5 | 571.85
300 K, 7005.5 kPa, x2 = 0.75 | 576.66
320 K, 978.9 kPa, x2 = 0.5 | 535.28
320 K, 1008.4 kPa, x2 = 0.75 | 541.4
320 K, 1010.3 kPa, x2 = 0.25 | 529.04
320 K, 1496.2 kPa, x2 = 0.25 | 530.4
320 K, 1506.1 kPa, x2 = 0.75 | 542.64
320 K, 1594.1 kPa, x2 = 0.5 | 536.89
320 K, 2006 kPa, x2 = 0.75 | 543.82
320 K, 2007.9 kPa, x2 = 0.5 | 537.95
320 K, 2013.6 kPa, x2 = 0.25 | 531.82
320 K, 2503.8 kPa, x2 = 0.75 | 545.03
320 K, 2511 kPa, x2 = 0.25 | 533.15
320 K, 2513.8 kPa, x2 = 0.5 | 539.22
320 K, 2989.3 kPa, x2 = 0.25 | 534.4
320 K, 2990.8 kPa, x2 = 0.75 | 546.14
320 K, 3020.8 kPa, x2 = 0.5 | 540.47
320 K, 3465.4 kPa, x2 = 0.5 | 541.53
320 K, 3504.2 kPa, x2 = 0.25 | 535.74
320 K, 3510.6 kPa, x2 = 0.75 | 547.3
320 K, 3972.8 kPa, x2 = 0.5 | 542.72
320 K, 3986.7 kPa, x2 = 0.75 | 548.41
320 K, 4006.4 kPa, x2 = 0.25 | 537
320 K, 4485.3 kPa, x2 = 0.25 | 538.17
320 K, 4492.1 kPa, x2 = 0.5 | 543.94
320 K, 4515.1 kPa, x2 = 0.75 | 549.56
320 K, 4992.4 kPa, x2 = 0.5 | 545.07
320 K, 4997.8 kPa, x2 = 0.75 | 550.6
320 K, 4998.1 kPa, x2 = 0.25 | 539.39
320 K, 5465.3 kPa, x2 = 0.5 | 546.12
320 K, 5506.3 kPa, x2 = 0.25 | 540.6
320 K, 5508.2 kPa, x2 = 0.75 | 551.69
320 K, 5970.9 kPa, x2 = 0.25 | 541.67
320 K, 5971.8 kPa, x2 = 0.5 | 547.22
320 K, 6015.9 kPa, x2 = 0.75 | 552.74
320 K, 6462.7 kPa, x2 = 0.5 | 548.28
320 K, 6488.4 kPa, x2 = 0.75 | 553.71
320 K, 6514.9 kPa, x2 = 0.25 | 542.91
320 K, 7034.9 kPa, x2 = 0.25 | 544.07
320 K, 7065.7 kPa, x2 = 0.75 | 554.85
320 K, 7093.8 kPa, x2 = 0.5 | 549.62
340 K, 998.6 kPa, x2 = 0.5 | 506.59
340 K, 1008.5 kPa, x2 = 0.75 | 513.55
340 K, 1505.9 kPa, x2 = 0.75 | 515.25
340 K, 1510 kPa, x2 = 0.25 | 501.39
340 K, 1561.3 kPa, x2 = 0.5 | 508.67
340 K, 2003.4 kPa, x2 = 0.25 | 503.24
340 K, 2008.5 kPa, x2 = 0.5 | 510.27
340 K, 2020.5 kPa, x2 = 0.75 | 516.97
340 K, 2495.8 kPa, x2 = 0.25 | 505.08
340 K, 2500.9 kPa, x2 = 0.75 | 518.54
340 K, 2527.9 kPa, x2 = 0.5 | 512.06
340 K, 3001.4 kPa, x2 = 0.5 | 513.65
340 K, 3005.7 kPa, x2 = 0.75 | 520.07
340 K, 3009.8 kPa, x2 = 0.25 | 506.91
340 K, 3499.6 kPa, x2 = 0.75 | 521.61
340 K, 3512.9 kPa, x2 = 0.25 | 508.67
340 K, 3521.9 kPa, x2 = 0.5 | 515.35
340 K, 4004.8 kPa, x2 = 0.25 | 510.31
340 K, 4004.8 kPa, x2 = 0.75 | 523.11
340 K, 4042.3 kPa, x2 = 0.5 | 516.97
340 K, 4496.4 kPa, x2 = 0.75 | 524.53
340 K, 4508.6 kPa, x2 = 0.25 | 511.95
340 K, 4526.2 kPa, x2 = 0.5 | 518.46
340 K, 4981.3 kPa, x2 = 0.25 | 513.47
340 K, 4988.5 kPa, x2 = 0.5 | 519.84
340 K, 4990.6 kPa, x2 = 0.75 | 525.87
340 K, 5500.3 kPa, x2 = 0.25 | 515.08
340 K, 5502 kPa, x2 = 0.5 | 521.34
340 K, 5515.9 kPa, x2 = 0.75 | 527.37
340 K, 5973.6 kPa, x2 = 0.75 | 528.61
340 K, 5999.1 kPa, x2 = 0.25 | 516.58
340 K, 6016.6 kPa, x2 = 0.5 | 522.8
340 K, 6476.8 kPa, x2 = 0.5 | 524.07
340 K, 6496.3 kPa, x2 = 0.75 | 529.99
340 K, 6508.8 kPa, x2 = 0.25 | 518.07
340 K, 7019.3 kPa, x2 = 0.75 | 531.33
340 K, 7019.9 kPa, x2 = 0.25 | 519.55
340 K, 7084.7 kPa, x2 = 0.5 | 525.72
360 K, 1517.1 kPa, x2 = 0.75 | 483.05
360 K, 1517.3 kPa, x2 = 0.5 | 475.07
360 K, 1523.6 kPa, x2 = 0.25 | 466.34
360 K, 1975.7 kPa, x2 = 0.25 | 469.15
360 K, 1976.3 kPa, x2 = 0.75 | 485.36
360 K, 2018.5 kPa, x2 = 0.5 | 477.84
360 K, 2482.6 kPa, x2 = 0.25 | 472.1
360 K, 2496 kPa, x2 = 0.75 | 487.85
360 K, 2525 kPa, x2 = 0.5 | 480.5
360 K, 2961.3 kPa, x2 = 0.75 | 489.97
360 K, 3005.9 kPa, x2 = 0.5 | 482.91
360 K, 3010.1 kPa, x2 = 0.25 | 474.99
360 K, 3489.3 kPa, x2 = 0.75 | 492.24
360 K, 3507.7 kPa, x2 = 0.25 | 477.58
360 K, 3511.2 kPa, x2 = 0.5 | 485.28
360 K, 3977.2 kPa, x2 = 0.75 | 494.26
360 K, 4007.3 kPa, x2 = 0.25 | 480.03
360 K, 4019.1 kPa, x2 = 0.5 | 487.57
360 K, 4443.6 kPa, x2 = 0.75 | 496.16
360 K, 4493 kPa, x2 = 0.25 | 482.35
360 K, 4510.2 kPa, x2 = 0.5 | 489.71
360 K, 4948.8 kPa, x2 = 0.75 | 498.12
360 K, 5010.2 kPa, x2 = 0.25 | 484.66
360 K, 5018.9 kPa, x2 = 0.5 | 491.8
360 K, 5499.8 kPa, x2 = 0.75 | 500.18
360 K, 5503.6 kPa, x2 = 0.25 | 486.78
360 K, 5508.6 kPa, x2 = 0.5 | 493.77
360 K, 5964.2 kPa, x2 = 0.75 | 501.91
360 K, 6002.5 kPa, x2 = 0.25 | 488.86
360 K, 6019.4 kPa, x2 = 0.5 | 495.75
360 K, 6484.4 kPa, x2 = 0.75 | 503.73
360 K, 6497.2 kPa, x2 = 0.25 | 490.83
360 K, 6511.4 kPa, x2 = 0.5 | 497.56
360 K, 7022.1 kPa, x2 = 0.5 | 499.47
360 K, 7041 kPa, x2 = 0.25 | 492.93
360 K, 7073.3 kPa, x2 = 0.75 | 505.68
380 K, 1992.3 kPa, x2 = 0.75 | 445.43
380 K, 2496.5 kPa, x2 = 0.25 | 428.54
380 K, 2506.6 kPa, x2 = 0.5 | 440.41
380 K, 2519.3 kPa, x2 = 0.75 | 449.94
380 K, 3005 kPa, x2 = 0.5 | 444.82
380 K, 3007.8 kPa, x2 = 0.25 | 433.95
380 K, 3014.5 kPa, x2 = 0.75 | 453.77
380 K, 3482.8 kPa, x2 = 0.75 | 457.09
380 K, 3498.2 kPa, x2 = 0.25 | 438.53
380 K, 3519 kPa, x2 = 0.5 | 448.92
380 K, 4000 kPa, x2 = 0.25 | 442.76
380 K, 4015.3 kPa, x2 = 0.5 | 452.56
380 K, 4022 kPa, x2 = 0.75 | 460.64
380 K, 4463.2 kPa, x2 = 0.25 | 446.33
380 K, 4476.8 kPa, x2 = 0.75 | 463.44
380 K, 4521.7 kPa, x2 = 0.5 | 456
380 K, 4994 kPa, x2 = 0.75 | 466.44
380 K, 5001.3 kPa, x2 = 0.5 | 459.04
380 K, 5004.6 kPa, x2 = 0.25 | 450.19
380 K, 5481.2 kPa, x2 = 0.25 | 453.35
380 K, 5504.5 kPa, x2 = 0.75 | 469.24
380 K, 5511.6 kPa, x2 = 0.5 | 462.08
380 K, 5986.7 kPa, x2 = 0.25 | 456.5
380 K, 5998.4 kPa, x2 = 0.75 | 471.8
380 K, 6010.6 kPa, x2 = 0.5 | 464.88
380 K, 6475.4 kPa, x2 = 0.75 | 474.16
380 K, 6476.8 kPa, x2 = 0.25 | 459.36
380 K, 6505.2 kPa, x2 = 0.5 | 467.52
380 K, 6967.5 kPa, x2 = 0.75 | 476.48
380 K, 6981.4 kPa, x2 = 0.5 | 469.94
380 K, 7003.2 kPa, x2 = 0.25 | 462.28

mass density [kg/m3]
Conditions | 300 K | 320 K | 340 K | 360 K | 380 K
x2 = 0.25 | 553.87 | 527.89 | 499.35 | – | 424.73
x2 = 0.5 | 559.44 | 534.14 | 506.18 | 474.18 | 435.21
x2 = 0.75 | 564.78 | 540.17 | 512.91 | 481.73 | 445.14
